Patent US8957016B2, “Tumor activated prodrugs” (Genspera, Inc., priority 2006, dated 2015)
Where two headings read alike, the source gives them in different places. *1 amine or outer side, *2 acyl side, *3 side chain or, on linkers, in order; H or OH if unused. Where a SMILES comes first, the peptide text is derived from it. [ ]: non-standard residue; d: D form. The star is where a group is joined. AMC = Cc1cc(=O)oc2cc(N*)ccc12; Morpholide = C1CN(*)CCO1; CO = O=C([*:1])[*:2]

Key:
[1] = target: PSA (Homo sapiens, UniProt P07288); assay: Kinetic parameters of fluorescent (AMC) PSA peptide substrates, Lineweaver Burke plots; format: biochemical; settings: PSA 10 μg/ml, AMC-coupled peptide
Sequence of PSA (P07288 25-261): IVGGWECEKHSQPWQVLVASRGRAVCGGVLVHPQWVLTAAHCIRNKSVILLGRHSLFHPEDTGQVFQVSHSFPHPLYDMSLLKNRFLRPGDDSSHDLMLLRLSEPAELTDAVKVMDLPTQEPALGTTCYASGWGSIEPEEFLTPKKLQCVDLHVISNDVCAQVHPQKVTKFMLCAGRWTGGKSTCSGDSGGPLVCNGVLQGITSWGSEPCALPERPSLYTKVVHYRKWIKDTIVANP
Protocol: These peptides were then incubated with PSA (10 μg/ml) and Michaelis Menton kinetic parameters determined using Lineweaver Burke plots, Table 3. In this study, Kcat/Km ratios were calculated in order to rank peptides. Newly synthesized peptides contained an acetyl protecting group (Ac) at the amino terminus, whereas the test peptide contained the protecting group morpholinylcarbonyl (Mu).

[2] = target: sarcoplasmic reticulum (SR) and endoplasmic reticulum (ER) Ca2+-ATPase (SERCA) pump; settings: read-out: apparent dissociation constant; cited from earlier work

CC(=O)NCC(=O)N[C@@H](CCCCN)C(=O)N[C@@H](CO)C(=O)N[C@@H](CCC(N)=O)C(=O)N[C@@H](Cc1ccc(O)cc1)C(=O)N[C@@H](CCC(N)=O)C(=O)Nc1ccc2c(C)cc(=O)oc2c1 [Ac-GKSQYQ-AMC] (Ac-GKSQYQ-{AMC})
kcat [1]: 0.09 s⁻¹ | Km ([1]; read-out: Km): 343 µM

CC(=O)NCC(=O)N[C@@H](CO)C(=O)N[C@@H](CO)C(=O)N[C@@H](CCCCN)C(=O)N[C@@H](Cc1ccccc1)C(=O)N[C@@H](CCC(N)=O)C(=O)Nc1ccc2c(C)cc(=O)oc2c1 [Ac-GSSKFQ-AMC] (Ac-GSSKFQ-{AMC})
Km [1]: 666 µM | kcat [1]: 0.057 s⁻¹

CC(=O)NCC(=O)N[C@@H](CO)C(=O)N[C@@H](CO)C(=O)N[C@@H](CCCCN)C(=O)N[C@@H](Cc1ccc(O)cc1)C(=O)N[C@@H](CCC(N)=O)C(=O)Nc1ccc2c(C)cc(=O)oc2c1 [Ac-GSSKYQ-AMC] (Ac-GSSKYQ-{AMC})
Km [1]: 500 µM | kcat [1]: 0.113 s⁻¹

CC(=O)NCC(=O)N[C@H](CO)C(=O)N[C@@H](C)C(=O)N[C@@H](CCCCN)C(=O)N[C@@H](Cc1ccc(O)cc1)C(=O)N[C@@H](CCC(N)=O)C(=O)Nc1ccc2c(C)cc(=O)oc2c1 [Ac-GsAKYQ-AMC] (Ac-G[dS]AKYQ-{AMC})
Km [1]: 653 µM | kcat [1]: 0.143 s⁻¹

Cc1cc(=O)oc2cc(NC(=O)[C@H](CCC(N)=O)NC(=O)[C@H](CC(C)C)NC(=O)[C@H](CCCCN)NC(=O)[C@H](CO)NC(=O)[C@H](CO)NC(=O)[C@H](Cc3c[nH]cn3)NC(=O)N3CCOCC3)ccc12 [Mu-HSSKLQ-AMC, reference compound] ({Morpholide-CO}-HSSKLQ-{AMC})
kcat [1]: 0.011 s⁻¹

C/C=C(/C)C(=O)O[C@H]1C(C)=C2[C@H]([C@@H]1OC(=O)CCCCCCC)[C@@](C)(OC(C)=O)C[C@H](OC(=O)CCC)[C@@]1(O)[C@H]2OC(=O)[C@@]1(C)O [Thapsigargin]
Kd [2]: ≤ 2.2 pM
